Biological target: T1, human TLR9 (Homo sapiens, UniProt Q9NR96)
T1 sequence (Q9NR96 26-1032): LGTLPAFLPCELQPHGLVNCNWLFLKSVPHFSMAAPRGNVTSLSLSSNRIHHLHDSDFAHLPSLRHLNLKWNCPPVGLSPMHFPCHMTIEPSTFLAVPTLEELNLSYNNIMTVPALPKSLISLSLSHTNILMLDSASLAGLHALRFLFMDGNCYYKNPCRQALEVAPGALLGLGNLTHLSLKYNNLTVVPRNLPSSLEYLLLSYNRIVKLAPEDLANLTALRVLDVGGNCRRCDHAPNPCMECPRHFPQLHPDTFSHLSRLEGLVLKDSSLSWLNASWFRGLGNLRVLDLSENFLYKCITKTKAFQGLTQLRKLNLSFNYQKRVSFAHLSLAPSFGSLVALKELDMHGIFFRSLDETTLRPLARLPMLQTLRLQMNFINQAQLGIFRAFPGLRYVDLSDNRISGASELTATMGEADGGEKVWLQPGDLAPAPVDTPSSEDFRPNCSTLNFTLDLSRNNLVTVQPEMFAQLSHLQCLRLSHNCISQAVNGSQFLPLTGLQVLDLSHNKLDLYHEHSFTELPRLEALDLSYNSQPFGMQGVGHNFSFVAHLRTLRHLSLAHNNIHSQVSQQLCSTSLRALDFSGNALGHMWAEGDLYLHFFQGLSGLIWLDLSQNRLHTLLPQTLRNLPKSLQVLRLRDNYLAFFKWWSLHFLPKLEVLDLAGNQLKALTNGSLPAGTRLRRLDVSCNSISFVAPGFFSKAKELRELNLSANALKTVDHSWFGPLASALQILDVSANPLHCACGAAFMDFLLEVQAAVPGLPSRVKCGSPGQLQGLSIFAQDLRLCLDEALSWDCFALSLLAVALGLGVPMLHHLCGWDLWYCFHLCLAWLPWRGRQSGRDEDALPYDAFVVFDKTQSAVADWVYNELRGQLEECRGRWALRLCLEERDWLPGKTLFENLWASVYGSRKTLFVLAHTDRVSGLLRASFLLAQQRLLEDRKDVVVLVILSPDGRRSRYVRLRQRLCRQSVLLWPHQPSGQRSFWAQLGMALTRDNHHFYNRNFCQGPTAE
Experiment: HEK293-Blue-hTLR-9 cells assay
Assay type: cell-based
Settings: HEK293-Blue-hTLR9 cells, ODN2006 stimulation, 20 hrs, SEAP reporter; read-out: HEK/hTLR9 IC50
From the text: HEK293-Blue-hTLR-9 Cells Assay:
A stable HEK293-Blue-hTLR-9 cell line was purchased from InvivoGen (Cat. #: hkb-htlr9, San Diego. California USA). These cells were originally designed for studying the stimulation of human TLR9 by monitoring the activation of NF-κB. A SEAP (secreted embryonic alkaline phosphatase) reporter gene was placed under the control of the IFN-β minimal promoter fused to five NF-κB and AP-1-binding sites. The SEAP was induced by activating NF-κB and AP-1 via stimulating HEK-Blue hTLR9 cells with TLR9 ligands. Therefore the reporter expression was declined by TLR9 antagonist under the stimulation of a ligand, such as ODN2006 (Cat. #: tlrl-2006-1, Invivogen, San Diego, California USA), for incubation of 20 hrs. The cell culture supernatant SEAP reporter activity was determined using QUANTI-Blue™ kit (Cat. #: rep-qb1, Invivogen, San Diego, California, USA) at a wavelength of 640 nm, a detection medium that turns purple or blue in the presence of alkaline phosphatase.
HEK293-Blue-hTLR9 cells were incubated at a density of 250.000-450,000 cells/mL in a volume of 170 μL in a 96-well plate in Dulbecco's Modified Eagle's medium (DMEM) containing 4.5 g/L glucose, 50 U/mL penicillin, […], […], 2 mM L-glutamine, 10% (v/v) heat-inactivated fetal bovine serum with addition of 20 μL test compound 1n a serial dilution in the presence of final DMSO at 1% and 10 μL of 20 uM ODN2006 in above DMEM, perform incubation under 37° C. in a CO2 incubator for 20 hrs. Then 20 μL of the supernatant from each well was incubated with 180 μL Quanti-blue substrate solution at 37° C. for 2 h and the absorbance was read at 620˜655 nm using a spectrophotometer. The signaling pathway that TLR9 activation leads to downstream NF-κB activation has been widely accepted, and therefore similar reporter assay was modified for evaluating TLR9 antagonist.

For `C[C@@H]1CN(c2ccc(C#N)c3ncccc23)C[C@@H]2c3ccc(N4CCNC[C@@](C)(O)C4)cc3CN12` [Example 55B, 5-[(4R,10bS)-8-[(6R)-6-hydroxy-6-methyl-1,4-diazepan-1-yl]-4-methyl-3,4,6,10b-tetrahydro-1H-pyrazino[2,1-a]isoindol-2-yl]quinoline-8-carbonitrile], which IC50 is on record?
Its IC50 is 156 nM.

`C[C@@H]1CN(c2ccc(C#N)n3nccc23)C[C@@H]2c3ccc(N4CC5CNCC(C4)O5)cc3CN12` [Example 107, 4-[(4R,10bS)-4-methyl-8-(9-oxa-3,7-diazabicyclo[3.3.1]nonan-3-yl)-3,4,6,10b-tetrahydro-1H-pyrazino[2,1-a]isoindol-2-yl]pyrazolo[1,5-a]pyridine-7-carbonitrile] was tested. Which IC50 did it give?
The IC50 was 67.9 nM.

How did the IC50 turn out when `CO[C@H]1CN(c2ccc3c(c2)CN2C3CN(c3ccc(C#N)c4ncccc34)C[C@H]2C)C[C@@H]1N` (single isomer, unassigned) [Example 16A] was run?
The IC50 was 113 nM.

With `CO[C@@H]1CN(c2ccc3c(c2)CN2[C@H](C)CN(c4ccc(C#N)n5nccc45)C[C@H]32)CC[C@@H]1N` [Example 105, 4-[(4R,10bS)-8-[(3R,4S)-4-amino-3-methoxy-1-piperidyl]-4-methyl-3,4,6,10b-tetrahydro-1H-pyrazino[2,1-a]isoindol-2-yl]pyrazolo[1,5-a]pyridine-7-carbonitrile] as the compound, how does the IC50 read?
Its IC50 is 163 nM.

How did the IC50 turn out when `N#Cc1ccc(N2CCN3Cc4cc(N5CCNCC5)ccc4C3C2)c2scnc12` (stereo not shown) [Example 4, 7-(8-piperazin-1-yl-3,4,6,10b-tetrahydro-1H-pyrazino[2,1-a]isoindol-2-yl)-1,3-benzothiazole-4-carbonitrile] was run?
The IC50 was 101 nM.

Which IC50 does the source give for `C[C@@H]1CN(c2ccc(C#N)c3ncccc23)C[C@@H]2c3ccc(N4CCNC[C@@H]4CO)cc3CN12` [Example 10, 5-[(4R,10bS)-8-[(2R)-2-(hydroxymethyl)piperazin-1-yl]-4-methyl-3,4,6,10b-tetrahydro-1H-pyrazino[2,1-a]isoindol-2-yl]quinoline-8-carbonitrile] here?
Its IC50 is 92.5 nM.

For `CN[C@H]1CN(c2ccc3c(c2)CN2[C@H](C)CN(c4ccc(C#N)c5ncccc45)C[C@H]32)C[C@@H]1OC` [Example 23, 5-[(4R,10bS)-8-[(3S,4S)-3-methoxy-4-(methylamino)pyrrolidin-1-yl]-4-methyl-3,4,6,10b-tetrahydro-1H-pyrazino[2,1-a]isoindol-2-yl]quinoline-8-carbonitrile], which IC50 is on record?
The IC50 was 92.4 nM.

Which IC50 does the source give for `C[C@@H]1CN(c2ccc(C#N)c3ncccc23)C[C@@H]2c3ccc(N4CC(N)C5(COC5)C4)cc3CN12` (stereo partly drawn) [Example 18, 5-[(4R,10bS)-8-(5-amino-2-oxa-7-azaspiro[3.4]octan-7-yl)-4-methyl-3,4,6,10b-tetrahydro-1H-pyrazino[2,1-a]isoindol-2-yl]quinoline-8-carbonitrile] here?
The IC50 was 114 nM.

For `C[C@@H]1CN(c2ccc(C#N)c3ncccc23)C[C@@H]2c3ccc(N[C@@H]4CNC[C@@H]4F)cc3CN12` [Example 32, 5-[(4R,10bS)-8-[[(3R,4S)-4-fluoropyrrolidin-3-yl]amino]-4-methyl-3,4,6,10b-tetrahydro-1H-pyrazino[2,1-a]isoindol-2-yl]quinoline-8-carbonitrile], which IC50 is on record?
Its IC50 is 89.2 nM.

With `CO[C@H]1CCN(c2ccc3c(c2)CN2[C@H](C)CN(c4ccc(C#N)n5nccc45)C[C@H]32)C[C@H]1N` [Example 106, 4-[(4R,10bS)-8-[(3R,4S)-3-amino-4-methoxy-1-piperidyl]-4-methyl-3,4,6,10b-tetrahydro-1H-pyrazino[2,1-a]isoindol-2-yl]pyrazolo[1,5-a]pyridine-7-carbonitrile] as the compound, how does the IC50 read?
Its IC50 is 135 nM.

For `C[C@@H]1CN(c2ccc(C#N)c3ncccc23)C[C@@H]2c3ccc(N[C@@H]4CNC[C@H]4F)cc3CN12` [Example 33, 5-[(4R,10bS)-8-[[(3R,4R)-4-fluoropyrrolidin-3-yl]amino]-4-methyl-3,4,6,10b-tetrahydro-1H-pyrazino[2,1-a]isoindol-2-yl]quinoline-8-carbonitrile], which IC50 is on record?
The IC50 was 100 nM.

Which IC50 does the source give for `[2H]c1ccc2c(N3C[C@@H](C)N4Cc5cc(N6CC(C)(N)C6)ccc5[C@H]4C3)ccc(C#N)c2n1` [Example 92, 5-[(4R,10bS)-8-(3-amino-3-methyl-azetidin-1-yl)-4-methyl-3,4,6,10b-tetrahydro-1H-pyrazino[2,1-a]isoindol-2-yl]-2-deuterio-quinoline-8-carbonitrile] here?
The IC50 was 148 nM.

`CO[C@@H]1CN(c2ccc3c(c2)CN2[C@H](C)CN(c4ccc(C#N)n5ncc(F)c45)C[C@H]32)C[C@H]1N` [Example 113, 4-[(4R,10bS)-8-[(3R,4R)-3-amino-4-methoxy-pyrrolidin-1-yl]-4-methyl-3,4,6,10b-tetrahydro-1H-pyrazino[2,1-a]isoindol-2-yl]-3-fluoro-pyrazolo[1,5-a]pyridine-7-carbonitrile] was tested. Which IC50 did it give?
The IC50 was 135 nM.

For `C[C@@H]1CN(c2ccc(C#N)n3nccc23)C[C@@H]2c3ccc(N4CCNCC4)cc3CN12` [Example 5, 4-[(4R,10bS)-4-methyl-8-piperazin-1-yl-3,4,6,10b-tetrahydro-1H-pyrazino[2,1-a]isoindol-2-yl]pyrazolo[1,5-a]pyridine-7-carbonitrile], which IC50 is on record?
Its IC50 is 133 nM.

For `CO[C@@H]1CN(c2ccc3c(c2)CN2[C@H](C)CN(c4ccc(C#N)n5nccc45)C[C@H]32)CC[C@H]1N` [Example 104, 4-[(4R,10bS)-8-[(3R,4R)-4-amino-3-methoxy-1-piperidyl]-4-methyl-3,4,6,10b-tetrahydro-1H-pyrazino[2,1-a]isoindol-2-yl]pyrazolo[1,5-a]pyridine-7-carbonitrile], which IC50 is on record?
Its IC50 is 90.3 nM.

How did the IC50 turn out when `C[C@@H]1CN(c2ccc(C#N)n3nccc23)C[C@@H]2c3ccc(N[C@H]4CNC[C@H]4F)cc3CN12` [Example 98, 4-[(4R,10bS)-8-[[(3S,4R)-4-fluoropyrrolidin-3-yl]amino]-4-methyl-3,4,6,10b-tetrahydro-1H-pyrazino[2,1-a]isoindol-2-yl]pyrazolo[1,5-a]pyridine-7-carbonitrile] was run?
The IC50 was 197 nM.
